Where “and” joins values, the source holds several entries; their conditions need not be identical. Equal values may be shown once. Where a name gives a salt, the structure may show the parent alone. Read-outs that look alike come from different tables or passages of the source.
What was measured:
[1] = test system: HBV (ayw subtype, genotype D) replicon in HepG2.2.15 cells; assay: microbe, parasite or virus in culture; format: cell-based, Hepatitis B virus; conditions: for inhibition at 1 µM: Hepatitis B virus
[2] = ref https://www.drugbank.ca/; cited from earlier work
[3] = test system: HBV pgRNA/precore RNA in HepG2.2.15 cells; format: cell-based, Hepatitis B virus
Method: Fig. 1 Effect of FDA-approved compounds on HBV replication. a Schematic depiction of the primary screening analysis. HepG2.2.15 cells, which were stably transfected with HBV replicons, were treated with 978 FDA-approved drugs (1 μM) for 3 days. Entecavir (ETV) (1 μM) served as positive control. […] Quantitative RT-PCR was performed after 6 days of incubation. d Effect of the 19 candidates on intracellular HBV capsid assembly. Huh-7 cells were transfected with pCDNA3-Core and exposed after 12 h to the 19 candidates (1 μM) for 36 h. The cells were lysed and assembled HBV core particles were isolated by sucrose step gradient ultracentrifugation, resolved on 1% agarose gels, and subjected to immunoblot analysis with anti-HBV core antibody.
Quantitative RT-PCR with primers that detect three HBV regions (R1, R2, and R3, Supplementary Table 1) was used to measure HBV transcription. This RT-PCR detects pgRNA and precore RNA (3.5 kB), two HBV surface-encoding RNAs (2.5 kB and 2.1 kB), and HBx-encoding RNA (0.7 kB)[55]. PCR conditions were 95 °C for 10 min initially, then 50 cycles of 95 °C for 30 s, 60 °C for 60 s and 72 °C for 30 s, and finally 1 cycle of 95 °C for 60 s, 55 °C for 30 s and 95 °C for 30 s.
a Schematic depiction of the R1, R2, and R3 regions of the HBV genome that were targeted by
quantitative RT-PCR to quantitate the transcription of pgRNA, two HBV surface RNAs, and HBx RNA.
pGL3/HBV pgRNA promoter or pGL3/HBV sRNA promoter. The data shown in (b – d) represent two

[4] = HepG2.2.15, 72 h, 1 μM, 3 days, ETV =100%, read-out: % of inhibition (ETV =100%), initial screening (3days)
[5] = HepG2.2.15, 144 h, 6 days, ETV =100%, read-out: % of inhibition (ETV =100%), confirmation (6days)
[6] = HepG2.2.15, 72 h, read-out: % of inhibition (ETV =100%), initial screening (3days)
[7] = HepG2.2.15, 144 h, read-out: % of inhibition (ETV =100%), confirmation (6days)

Row | Compound | inhibition at 1 µM [1, 4] | inhibition at 1 µM [1, 5] | pKa value (acidic) [2] | pKa value (basic) [2] | Relative HBV pgRNA/precore RNA level (Folds), AVERAGE ([3]; Fig. 1c, 6 days) | Relative HBV pgRNA/precore RNA level (Folds), AVERAGE [3] | also measured
1 | COc1cc(C)c(/C=C/C(C)=C/C=C/C(C)=C/C(=O)O)c(C)c1C [Acitretin] | 110% | 1.8% | 5.01 | -4.8 | 0.9923 Folds | – | –
2 | Cc1c(N(C)C)c(=O)n(-c2ccccc2)n1C [Amidopyrine] | – | – | – | 3.47 | 1.046 Folds | – | % of inhibition (ETV =100%), initial screening (3days) ([1]; 1 μM, 3 days, ETV =100%): 111.6%; % of inhibition (ETV =100%), confirmation (6days) ([1]; 6 days, ETV =100%): 7.1%; Relative secreted HBV DNA level (Folds), AVERAGE ([1]; Fig. 1b, 6 days): 0.9368 Folds; Relative secreted HBV DNA level (Folds), individual samples ([1]; Fig. 1b, 6 days, Sample1-3): 0.9368 Folds and 0.9352 Folds and 0.9383 Folds; Relative HBV pgRNA/precore RNA level (Folds), individual samples ([3]; Fig. 1c, 6 days, Sample1-3): 1.129 Folds and 0.9386 Folds and 1.071 Folds
3 | NCCc1ccc(O)c(O)c1 [Dopamine hydrochloride] | – | – | 10.01 | 9.27 | – | 1.103 Folds | inhibition at 1 µM [1, 6]: 162%; inhibition at 1 µM [1, 7]: 67.9%
4 | Clc1ccc(COC(Cn2ccnc2)c2ccc(Cl)cc2Cl)cc1 (stereo not shown) [Econazole nitrate] | – | – | – | 6.77 | – | 0.0453 Folds | inhibition at 1 µM [1, 6]: 147%; inhibition at 1 µM [1, 7]: 27.5%
5 | O=c1[nH]c(=O)n(C2CCCO2)cc1F (stereo not shown) [Ftorafur] | 131% | 64.7% | 8.08 | -4.3 | 0.977 Folds | – | –
6 | Clc1ccc(C(Cn2ccnc2)OCc2c(Cl)cccc2Cl)c(Cl)c1 (stereo not shown) [Isoconazole nitrate] | 148% | 41.4% | – | 6.77 | 1.034 Folds | – | –
7 | Clc1ccc(COC(Cn2ccnc2)c2ccc(Cl)cc2Cl)c(Cl)c1 (stereo not shown) [Miconazole] | – | – | – | 6.77 | – | 0.964 Folds | inhibition at 1 µM [1, 6]: 132%; inhibition at 1 µM [1, 7]: -2.8%
8 | OC(CNCC(O)C1CCc2cc(F)ccc2O1)C1CCc2cc(F)ccc2O1 (stereo not shown) [Nebivolol] | 103% | 78.4% | 13.52 | 8.9 | 0.9531 Folds | – | –
9 | O=C1NC(=O)C(c2ccccc2)(c2ccccc2)N1 [Phenytoin sodium] | 124% | -2.4% | 9.47 | – | 0.7935 Folds | – | –
10 | OC(CCN1CCCC1)(c1ccccc1)C1CCCCC1 (stereo not shown) [Procyclidine HCl] | 112% | 70.4% | – | 9.45 | 1.056 Folds | – | –
11 | CCCN(CCc1cccs1)[C@H]1CCc2c(O)cccc2C1 [Rotigotine] | 104% | 65.9% | 10.03 | 10.97 | 1.049 Folds | – | –
12 | O=N[O-].[Na+] [Sodium nitrite] | – | – | – | – | – | 0.04652 Folds | % of inhibition (ETV =100%), confirmation (6days) [1]: 83.1%; Relative secreted HBV DNA level (Folds), AVERAGE [1]: 0.2643 Folds; Relative secreted HBV DNA level (Folds), individual samples [1]: 0.2643 Folds and 0.2628 Folds and 0.2659 Folds; % of inhibition (ETV =100%), initial screening (3days) ([1]; 1 µM): 152.7%; Relative HBV pgRNA/precore RNA level (Folds), individual samples [3]: 0.04803 Folds and 0.041 Folds and 0.05054 Folds
13 | CC(C)NCC(O)c1ccc(NS(C)(=O)=O)cc1 (stereo not shown) [Sotalol] | 128% | 69.7% | 10.07 | 9.43 | 1.022 Folds | – | –
14 | CCOCC(O)COc1ccc(NC(=O)CC[S+](C)C)cc1 (stereo not shown) [Suplatast tosylate] | 125% | 76.2% | 12.7 | – | 1.034 Folds | – | –
15 | CN1C(C(=O)Nc2ccccn2)=C(O)c2sccc2S1(=O)=O [Tenoxicam] | – | – | 2.21 | 4.26 | – | 0.04619 Folds | inhibition at 1 µM [1, 6]: 110%; inhibition at 1 µM [1, 7]: 79.4%
16 | CC(C)(C)c1ccc(C(O)CCCN2CCC(C(O)(c3ccccc3)c3ccccc3)CC2)cc1 (stereo not shown) [Terfenadine] | – | – | 13.2 | 9.02 | – | 0.05435 Folds | inhibition at 1 µM [1, 6]: 101%; inhibition at 1 µM [1, 7]: 83.6%
17 | C[N+]1(C)[C@@H]2C[C@@H](OC(=O)C(O)(c3cccs3)c3cccs3)C[C@H]1[C@@H]1O[C@@H]12 [Tiotropium Bromide hydrate] | 117% | 4.9% | 10.35 | -4.3 | 1.071 Folds | – | –
18 | L-Adrenaline | – | – | – | – | 0.9192 Folds | – | % of inhibition (ETV =100%), initial screening (3days) ([1]; 1 μM, 3 days, ETV =100%): 152.6%; % of inhibition (ETV =100%), confirmation (6days) ([1]; 6 days, ETV =100%): 1.5%; Relative secreted HBV DNA level (Folds), AVERAGE ([1]; Fig. 1b, 6 days): 0.9865 Folds; Relative secreted HBV DNA level (Folds), individual samples ([1]; Fig. 1b, 6 days, Sample1-3): 0.9865 Folds and 0.985 Folds and 0.9881 Folds; Relative HBV pgRNA/precore RNA level (Folds), individual samples ([3]; Fig. 1c, 6 days, Sample1-3): 1.032 Folds and 0.7969 Folds and 0.9286 Folds
